Laboratory results: patent US20010055776A1, “High throughput cell-based assay kits” (priority 2000, published 2001)

Tested on: hemoglobin synthesis in human erythroid progenitors
Experiment: Filter plate assay of hemoglobin (HbA) in differentiating erythroid progenitors with Europium-labeled anti-hemoglobin
Assay type: cell-based
Details: 168 h, 0.5 mM succinylacetone, 1,000 cells/well, 3.0 μm PCF filter plate, IL-3, IL-6, SCF, EPO, 7 days, read-out: succinylacetone-mediated inhibition of hemoglobin
Procedure: FIG. 6. Adult hemoglobin (HbA) expression by differentiating human erythroid progenitors. Cryopreserved progenitors were thawed and seeded into wells of a 96-well PCF filter plate at a density of 1,000 cells/well and cultured in the presence of IL-3, IL-6, EPO, and SCF ±/−0.5 mM succinylacetone. Hemoglobin was assayed by the filter plate procedure on day 7.
To establish the linearity of the assay relative to cell number, peripheral blood erythrocytes were seeded into wells of PCF filter plates (0.4 μm pore size for peripheral blood erythrocytes and 3.0 μm pore size for progenitor cells), fixed with 0.1 ml 1% formaldehyde for 30 minutes and then washed once with Hank's balanced salt solution (HBSS) (0.2 ml/well) and twice with HBSS containing 0.1% bovine serum albumin (BSA). All washes were done in a Millipore Silent Screen vacuum manifold with a vacuum pressure of 5″ Hg.
The cells were then permeabilized by incubation with 0.2 ml 0.1% Triton X-100 in HBSS-BSA for 10 minutes at room temperature. […] Enhancement Solution (Wallac) was added (0.1 ml/well), and after 5 minutes Europium fluorescence (excitation at […] and emission at 615 nm) was measured over a 400 μsecond time period after an initial delay of 400 μseconds with a Wallac Victor spectrofluorimeter. […]

Work on `CC(=O)CC(=O)CCC(=O)O` [succinylacetone] yielded an inhibition at 500 µM of 86%.
